Source: US20250120967A1, “TYROSINE KINASES INHIBITORS AND USES THEREOF” (GREAT NOVEL THERAPEUTICS BIOTECH & MEDICALS CORPORATION, priority 2023, published 2025)
Where two headings read alike, the source gives them in different places.

Legend:
A549 cells = assay: In vitro cytotoxicity assay (MTT, 72 h); assay type: cell-based; settings: Homo sapiens, growth inhibition
Experimental: (§1) Six different cell lines were used, including human breast cancer cell lines MDA-MB-231 (6×10^3) and MDA-MB-453 (2.4×10^4), human colorectal cell line SW48 (2.4×10^4), human breast epithelial cell line M10 (6×10^3), human cancer cell line A549 (1.4×10^3), and murine colorectal carcinoma tumors CT26 (6×10^3), which were seeded in a 96-well plate. […] After 72 h, MTT assay (Cayman™) was used to determine the cellular viability.

M10 cells = assay: In vitro cytotoxicity assay (MTT, 72 h); assay type: cell-based; settings: growth inhibition, human normal cell line
Experimental: as §1

MDA-MB-231 cells = assay: In vitro cytotoxicity assay (MTT, 72 h); assay type: cell-based; settings: Homo sapiens, growth inhibition
Experimental: as §1

MDA-MB-453 cells = assay: In vitro cytotoxicity assay (MTT, 72 h); assay type: cell-based; settings: Homo sapiens, growth inhibition
Experimental: as §1

SW48 cells = assay: In vitro cytotoxicity assay (MTT, 72 h); assay type: cell-based; settings: Homo sapiens, growth inhibition
Experimental: as §1

CT-26 cells = assay: In vitro cytotoxicity assay (MTT, 72 h); assay type: cell-based, murine; settings: Mus musculus, CT26, growth inhibition
Experimental: as §1

BTK = BTK (Homo sapiens, UniProt Q06187); assay: Tyrosine kinase inhibition assay; assay type: biochemical; settings: for IC50: read-out: IC50 of compound; for inhibition at 1 µM: single concentration 1.0 μM, read-out: percent inhibition
Experimental: (§2) Tyrosine kinase inhibition assays were performed at ThermoFisher Life Technologies (Madison, WI, USA) using standard protocols (SelectScreen Biochemical Profiling Service, Thermo Fisher Scientific). ATP concentrations used were at the apparent Km. Test compounds were screened in 1% dimethylsulffoxide (DMSO) (final concentration) in the well. For 10-point titrations, 3-fold serial dilutions were conducted from the starting concentration of […]. All Peptide/Kinase Mixtures were diluted to a 2× working concentration in the appropriate Kinase Buffer. All ATP Solutions were diluted to a 4× working concentration in Kinase Buffer (50 mM HEPES pH 7.5, 0.01% BRIJ-35, 10 mM MgCl2, 1 mM EGTA). The apparent ATP Km was previously determined using a Z′-LYTE assay. The Development Reagent was diluted in Development Buffer.
(§3) The inhibition activities of compounds were determined in biochemical assays using single concentration (1.0 μM) measurements. The results were provided as percent inhibition values. A compound displaying a percent inhibition value of greater 80% was defined as a hit. 99 different tyrosine kinases were used.

EPHA2 = EPHA2 (Homo sapiens, UniProt P29317); assay: Tyrosine kinase inhibition assay; assay type: biochemical; settings: for IC50: read-out: IC50 of compound; for inhibition at 1 µM: single concentration 1.0 μM, read-out: percent inhibition
Chain of EPHA2 (P29317 24-976): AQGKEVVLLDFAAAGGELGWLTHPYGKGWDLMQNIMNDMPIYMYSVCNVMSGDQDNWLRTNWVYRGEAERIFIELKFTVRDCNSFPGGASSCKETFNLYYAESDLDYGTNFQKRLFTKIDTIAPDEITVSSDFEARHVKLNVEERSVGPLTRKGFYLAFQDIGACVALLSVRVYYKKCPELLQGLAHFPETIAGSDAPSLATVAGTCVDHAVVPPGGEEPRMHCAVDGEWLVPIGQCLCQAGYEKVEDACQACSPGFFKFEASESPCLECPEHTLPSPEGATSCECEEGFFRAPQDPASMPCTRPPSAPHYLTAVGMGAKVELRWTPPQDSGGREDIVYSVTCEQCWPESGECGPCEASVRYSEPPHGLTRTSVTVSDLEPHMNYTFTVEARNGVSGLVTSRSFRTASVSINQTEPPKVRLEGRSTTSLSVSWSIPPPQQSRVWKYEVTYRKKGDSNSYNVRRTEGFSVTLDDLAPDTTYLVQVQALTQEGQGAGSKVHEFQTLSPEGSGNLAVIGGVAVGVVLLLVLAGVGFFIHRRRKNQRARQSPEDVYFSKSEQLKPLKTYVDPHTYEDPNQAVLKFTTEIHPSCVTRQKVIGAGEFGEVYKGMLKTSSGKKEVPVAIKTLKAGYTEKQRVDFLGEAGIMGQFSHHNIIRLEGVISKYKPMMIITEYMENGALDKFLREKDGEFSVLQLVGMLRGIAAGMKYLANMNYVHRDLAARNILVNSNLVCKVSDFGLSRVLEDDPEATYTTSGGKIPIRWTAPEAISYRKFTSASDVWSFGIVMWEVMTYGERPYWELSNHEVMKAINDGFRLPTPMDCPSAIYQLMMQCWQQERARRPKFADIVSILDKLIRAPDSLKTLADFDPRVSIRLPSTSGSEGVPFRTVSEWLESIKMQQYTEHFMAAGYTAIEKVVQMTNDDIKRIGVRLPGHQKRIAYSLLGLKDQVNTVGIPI
Experimental: as §2, §3

FER = FER (Homo sapiens, UniProt P16591); assay: Tyrosine kinase inhibition assay; assay type: biochemical; settings: for IC50: read-out: IC50 of compound; for inhibition at 1 µM: single concentration 1.0 μM, read-out: percent inhibition
Experimental: as §2, §3

FGR = FGR (Homo sapiens, UniProt P09769); assay: Tyrosine kinase inhibition assay; assay type: biochemical; settings: for IC50: read-out: IC50 of compound; for inhibition at 1 µM: single concentration 1.0 μM, read-out: percent inhibition
Chain of FGR (P09769 whole entry): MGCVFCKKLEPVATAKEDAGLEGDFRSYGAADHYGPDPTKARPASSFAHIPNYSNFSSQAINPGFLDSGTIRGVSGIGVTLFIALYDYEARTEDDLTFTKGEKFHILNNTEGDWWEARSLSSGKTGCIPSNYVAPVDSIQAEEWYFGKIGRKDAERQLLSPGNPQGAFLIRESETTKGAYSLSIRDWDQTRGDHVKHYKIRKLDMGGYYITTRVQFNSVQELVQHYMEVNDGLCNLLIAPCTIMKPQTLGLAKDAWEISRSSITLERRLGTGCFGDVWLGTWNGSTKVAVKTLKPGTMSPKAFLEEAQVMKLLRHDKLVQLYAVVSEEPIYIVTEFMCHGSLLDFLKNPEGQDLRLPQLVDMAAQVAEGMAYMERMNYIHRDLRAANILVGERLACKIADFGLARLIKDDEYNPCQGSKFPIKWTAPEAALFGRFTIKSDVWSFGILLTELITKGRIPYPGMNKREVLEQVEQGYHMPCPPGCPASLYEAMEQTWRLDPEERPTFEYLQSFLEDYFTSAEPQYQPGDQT
Experimental: as §2, §3

FLT4 (VEGFR3) = FLT4 (VEGFR3) (Homo sapiens, UniProt P35916); assay: Tyrosine kinase inhibition assay; assay type: biochemical; settings: for IC50: read-out: IC50 of compound; for inhibition at 1 µM: single concentration 1.0 μM, read-out: percent inhibition
Experimental: as §2, §3

HCK = HCK (Homo sapiens, UniProt P08631); assay: Tyrosine kinase inhibition assay; assay type: biochemical; settings: for IC50: read-out: IC50 of compound; for inhibition at 1 µM: single concentration 1.0 μM, read-out: percent inhibition
Experimental: as §2, §3

INSRR (IRR) = INSRR (IRR) (Homo sapiens, UniProt P14616); assay: Tyrosine kinase inhibition assay; assay type: biochemical; settings: for IC50: read-out: IC50 of compound; for inhibition at 1 µM: single concentration 1.0 μM, read-out: percent inhibition
Chain of INSRR (IRR) (P14616 27-1297): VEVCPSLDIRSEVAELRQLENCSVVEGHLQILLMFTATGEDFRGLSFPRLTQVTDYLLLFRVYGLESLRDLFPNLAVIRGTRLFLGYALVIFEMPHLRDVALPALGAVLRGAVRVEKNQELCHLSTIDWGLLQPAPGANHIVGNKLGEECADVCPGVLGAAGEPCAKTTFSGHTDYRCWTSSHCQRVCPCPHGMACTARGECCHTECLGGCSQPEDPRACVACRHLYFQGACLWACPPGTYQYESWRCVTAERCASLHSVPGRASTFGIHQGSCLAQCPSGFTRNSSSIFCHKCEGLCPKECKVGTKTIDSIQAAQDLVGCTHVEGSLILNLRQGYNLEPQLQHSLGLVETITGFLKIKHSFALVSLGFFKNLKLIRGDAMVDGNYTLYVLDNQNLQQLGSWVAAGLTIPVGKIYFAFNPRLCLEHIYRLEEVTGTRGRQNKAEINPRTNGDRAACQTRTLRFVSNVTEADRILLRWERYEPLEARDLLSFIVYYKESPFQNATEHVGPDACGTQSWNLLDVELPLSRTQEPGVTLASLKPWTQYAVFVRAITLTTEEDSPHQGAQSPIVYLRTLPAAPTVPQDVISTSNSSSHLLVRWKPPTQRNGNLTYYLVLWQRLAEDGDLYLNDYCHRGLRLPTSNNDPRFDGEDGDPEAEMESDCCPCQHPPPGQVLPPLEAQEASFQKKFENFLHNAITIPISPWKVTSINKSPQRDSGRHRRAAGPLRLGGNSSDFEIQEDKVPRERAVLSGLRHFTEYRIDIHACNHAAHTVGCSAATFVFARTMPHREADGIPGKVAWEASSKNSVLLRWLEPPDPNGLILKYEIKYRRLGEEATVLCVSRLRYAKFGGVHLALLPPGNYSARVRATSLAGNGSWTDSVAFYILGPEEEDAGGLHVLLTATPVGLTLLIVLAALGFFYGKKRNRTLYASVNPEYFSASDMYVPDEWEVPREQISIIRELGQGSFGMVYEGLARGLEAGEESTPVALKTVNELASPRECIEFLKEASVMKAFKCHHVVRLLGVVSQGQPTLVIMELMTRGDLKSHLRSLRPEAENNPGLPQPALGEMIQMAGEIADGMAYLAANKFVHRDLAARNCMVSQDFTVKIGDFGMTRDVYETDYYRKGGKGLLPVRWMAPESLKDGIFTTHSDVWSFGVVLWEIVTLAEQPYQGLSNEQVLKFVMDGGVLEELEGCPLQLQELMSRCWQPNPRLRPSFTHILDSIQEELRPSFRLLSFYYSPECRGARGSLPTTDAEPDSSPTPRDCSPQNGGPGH
Experimental: as §2, §3

LCK = LCK (Homo sapiens, UniProt P06239); assay: Tyrosine kinase inhibition assay; assay type: biochemical; settings: for IC50: read-out: IC50 of compound; for inhibition at 1 µM: single concentration 1.0 μM, read-out: percent inhibition
Experimental: as §2, §3

LYN A = LYN A (Homo sapiens, UniProt P07948); assay: Tyrosine kinase inhibition assay; assay type: biochemical; settings: for IC50: read-out: IC50 of compound; for inhibition at 1 µM: single concentration 1.0 μM, read-out: percent inhibition
Chain of LYN A (P07948 whole entry): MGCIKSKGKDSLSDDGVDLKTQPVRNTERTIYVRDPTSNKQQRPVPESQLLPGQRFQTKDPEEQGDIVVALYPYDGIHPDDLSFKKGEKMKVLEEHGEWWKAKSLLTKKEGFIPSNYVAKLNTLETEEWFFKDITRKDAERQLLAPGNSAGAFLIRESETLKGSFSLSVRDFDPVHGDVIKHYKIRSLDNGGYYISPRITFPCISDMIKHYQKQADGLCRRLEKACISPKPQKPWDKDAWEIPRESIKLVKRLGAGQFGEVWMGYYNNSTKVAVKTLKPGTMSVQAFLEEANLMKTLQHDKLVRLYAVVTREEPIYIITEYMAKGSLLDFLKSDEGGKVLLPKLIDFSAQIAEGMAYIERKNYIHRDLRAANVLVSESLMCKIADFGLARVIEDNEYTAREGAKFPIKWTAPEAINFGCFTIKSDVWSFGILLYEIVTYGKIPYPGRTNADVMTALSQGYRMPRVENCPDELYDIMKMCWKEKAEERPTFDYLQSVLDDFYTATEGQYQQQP
Experimental: as §2, §3

LYN B = LYN B (Homo sapiens, UniProt P07948); assay: Tyrosine kinase inhibition assay; assay type: biochemical; settings: for inhibition at 1 µM: single concentration 1.0 μM, read-out: percent inhibition
Experimental: as §2, §3

NTRK2 (TRKB) = NTRK2 (TRKB) (Homo sapiens, UniProt Q16620); assay: Tyrosine kinase inhibition assay; assay type: biochemical; settings: for inhibition at 1 µM: single concentration 1.0 μM, read-out: percent inhibition
Chain of NTRK2 (TRKB) (Q16620 32-822): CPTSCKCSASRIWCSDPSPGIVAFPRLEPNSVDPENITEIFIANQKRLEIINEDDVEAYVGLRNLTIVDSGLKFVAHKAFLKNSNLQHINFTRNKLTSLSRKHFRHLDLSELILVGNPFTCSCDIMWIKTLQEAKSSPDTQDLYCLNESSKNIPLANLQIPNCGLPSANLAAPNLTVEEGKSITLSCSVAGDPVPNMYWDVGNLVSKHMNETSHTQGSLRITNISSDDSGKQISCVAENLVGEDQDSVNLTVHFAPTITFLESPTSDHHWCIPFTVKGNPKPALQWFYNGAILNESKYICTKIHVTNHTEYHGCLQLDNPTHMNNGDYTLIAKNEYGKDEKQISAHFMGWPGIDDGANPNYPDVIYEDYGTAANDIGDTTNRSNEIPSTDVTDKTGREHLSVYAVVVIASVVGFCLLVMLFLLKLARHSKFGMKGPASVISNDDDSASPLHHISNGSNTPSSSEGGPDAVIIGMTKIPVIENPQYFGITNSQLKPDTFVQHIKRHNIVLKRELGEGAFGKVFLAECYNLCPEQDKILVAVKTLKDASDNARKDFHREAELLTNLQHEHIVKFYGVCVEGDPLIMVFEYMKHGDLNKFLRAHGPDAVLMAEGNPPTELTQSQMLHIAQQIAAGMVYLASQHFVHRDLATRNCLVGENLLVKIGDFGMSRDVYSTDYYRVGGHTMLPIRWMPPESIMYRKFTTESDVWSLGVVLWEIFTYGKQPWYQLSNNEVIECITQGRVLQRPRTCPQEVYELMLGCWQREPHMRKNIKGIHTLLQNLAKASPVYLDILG
Experimental: as §2, §3

PDGFRA (PDGFR alpha) = PDGFRA (PDGFR alpha) (Homo sapiens, UniProt P16234); assay: Tyrosine kinase inhibition assay; assay type: biochemical; settings: for IC50: read-out: IC50 of compound; for inhibition at 1 µM: single concentration 1.0 μM, read-out: percent inhibition
Experimental: as §2, §3

ROS1 = ROS1 (Homo sapiens, UniProt P08922); assay: Tyrosine kinase inhibition assay; assay type: biochemical; settings: for IC50: read-out: IC50 of compound; for inhibition at 1 µM: single concentration 1.0 μM, read-out: percent inhibition
Experimental: as §2, §3

SRC = SRC (Homo sapiens, UniProt P12931); assay: Tyrosine kinase inhibition assay; assay type: biochemical; settings: for IC50: read-out: IC50 of compound; for inhibition at 1 µM: single concentration 1.0 μM, read-out: percent inhibition
Chain of SRC (P12931 whole entry): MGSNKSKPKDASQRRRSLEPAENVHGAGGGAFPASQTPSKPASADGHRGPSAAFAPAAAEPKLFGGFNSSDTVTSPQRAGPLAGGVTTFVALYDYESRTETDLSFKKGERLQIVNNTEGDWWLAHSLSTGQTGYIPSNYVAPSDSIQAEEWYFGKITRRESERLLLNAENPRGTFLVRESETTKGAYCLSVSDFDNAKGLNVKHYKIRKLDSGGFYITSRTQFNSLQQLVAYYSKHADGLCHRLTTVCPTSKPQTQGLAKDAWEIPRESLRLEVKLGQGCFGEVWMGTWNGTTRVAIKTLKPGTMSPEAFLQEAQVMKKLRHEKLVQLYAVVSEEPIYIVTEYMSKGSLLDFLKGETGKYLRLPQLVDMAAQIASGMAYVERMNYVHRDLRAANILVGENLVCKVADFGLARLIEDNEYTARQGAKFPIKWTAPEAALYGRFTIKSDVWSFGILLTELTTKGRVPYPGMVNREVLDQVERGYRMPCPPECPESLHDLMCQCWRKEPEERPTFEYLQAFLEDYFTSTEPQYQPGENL
Experimental: as §2, §3

FRK (PTK5) = FRK (PTK5) (Homo sapiens, UniProt P42685); assay: Tyrosine kinase inhibition assay; assay type: biochemical; settings: for inhibition at 1 µM: single concentration 1.0 μM, read-out: percent inhibition
Experimental: as §2
(§4) The inhibition activities of compounds were determined in biochemical assays using single concentration (1.0 μM) measurements. The results were provided as percent inhibition values.

RET = RET (Homo sapiens, UniProt P07949); assay: Tyrosine kinase inhibition assay; assay type: biochemical; settings: single concentration 1.0 μM, read-out: percent inhibition
Experimental: as §2, §4

SMILES	IC50 (A549 cells)	IC50 (M10 cells)	IC50 (MDA-MB-231 cells)	IC50 (MDA-MB-453 cells)	IC50 (SW48 cells)	IC50 (CT-26 cells)	inhibition at 1 µM (BTK)	inhibition at 1 µM (EPHA2)	inhibition at 1 µM (FER)	inhibition at 1 µM (FGR)	inhibition at 1 µM (FLT4 (VEGFR3))	inhibition at 1 µM (HCK)	inhibition at 1 µM (INSRR (IRR))	inhibition at 1 µM (LCK)	inhibition at 1 µM (LYN A)	inhibition at 1 µM (LYN B; LYN B)	inhibition at 1 µM (NTRK2 (TRKB); NTRK2 (TRKB))	inhibition at 1 µM (PDGFRA (PDGFR alpha))	inhibition at 1 µM (ROS1)	inhibition at 1 µM (SRC)	other results
COc1cc2nccc(Oc3ccc(NC(=O)C4(C(=O)Nc5ccc(F)cc5)CC4)cc3)c2cc1OC [Cabozantinib, reference compound]	4050 ± 460 nM	9570 ± 1620 nM	8720 ± 1080 nM	20500 ± 4480 nM	4330 ± 330 nM	19600 ± 4300 nM	82%	95%	89%	97%	95%	90%	38%	95%	92%	91%	95%	92%	87%	89%	IC50 (BTK): 172 nM; IC50 (EPHA2): 37.7 nM; IC50 (FER): 424 nM; IC50 (FGR): 88.8 nM; IC50 (FLT4 (VEGFR3)): 30.3 nM; IC50 (HCK): 111 nM; IC50 (INSRR (IRR)): 386 nM; IC50 (LCK): 38.1 nM; IC50 (LYN A): 217 nM; IC50 (LYN B): 67.7 nM; IC50 (NTRK2 (TRKB)): 53.3 nM; IC50 (PDGFRA (PDGFR alpha)): 84.1 nM; IC50 (ROS1): 60.6 nM; IC50 (SRC): 141 nM; inhibition at 1 µM (FRK (PTK5)): 99%; inhibition at 1 µM (RET): 98%
COc1cc2nccc(Oc3ccc(NC(=O)C4(NC(=O)c5ccc(F)cc5)CC4)cc3F)c2cc1OC [Cbo-02, N-(1-((4-((6,7-diMethoxyquinolin-4-yl)oxy)-3-fluorophenyl)carbamoyl)cyclopropyl)-4-fluorobenzamide]	1510 ± 57 nM	3920 ± 250 nM	5640 ± 360 nM	5310 ± 570 nM	820 ± 11 nM	8200 ± 600 nM	98%	33%	88%	74%	79%	62%	80%	85%	71%	81%	23%	48%	56%	42%	inhibition at 1 µM (FRK (PTK5)): 59%; inhibition at 1 µM (RET): 67%
COc1cc2nccc(Oc3ccc(NC(=O)C4(NC(=O)c5ccc(F)cc5)CC4)cc3F)c2cc1Oc1ccc(N)cc1F [Cbo-10]	1180 ± 36 nM	911 ± 25 nM	2450 ± 140 nM	4670 ± 280 nM	790 ± 1 nM	5010 ± 160 nM	102%	56%	97%	92%	92%	72%	93%	96%	81%	86%	73%	84%	95%	86%	inhibition at 1 µM (FRK (PTK5)): 91%; inhibition at 1 µM (RET): 79%
COc1cc2nccc(Oc3ccc(NC(=O)C4(NC(=O)c5ccc(F)cc5)CC4)cc3F)c2cc1Oc1c(F)cc(N)cc1F [Cbo-14]	1230 ± 34 nM	920 ± 8 nM	14400 ± 5300 nM	2680 ± 750 nM	790 ± 1 nM	4900 ± 110 nM	101%	61%	99%	92%	92%	74%	93%	97%	86%	87%	88%	94%	97%	86%	inhibition at 1 µM (FRK (PTK5)): 100%; inhibition at 1 µM (RET): 89%
COc1cc2nccc(Oc3ccc(NC(=O)C4(C(=O)Nc5ccc(F)cc5)CC4)cc3F)c2cc1Oc1ccc(N)cc1F [Cbo-23]	1690 ± 130 nM	1010 ± 20 nM	1950 ± 1950 nM	1710 ± 140 nM	790 ± 5 nM	5180 ± 1730 nM	101%	102%	101%	97%	99%	99%	97%	99%	92%	96%	112%	95%	100%	94%	IC50 (BTK): 9.01 nM; IC50 (EPHA2): 20.9 nM; IC50 (FER): 24.7 nM; IC50 (FGR): 25.3 nM; IC50 (FLT4 (VEGFR3)): 20.8 nM; IC50 (HCK): 21.4 nM; IC50 (INSRR (IRR)): 53.4 nM; IC50 (LCK): 15.9 nM; IC50 (LYN A): 53.1 nM; IC50 (LYN B; LYN B, read-out: IC50 of compound): 18.8 nM; IC50 (NTRK2 (TRKB); NTRK2 (TRKB), read-out: IC50 of compound): 14.8 nM; IC50 (PDGFRA (PDGFR alpha)): 36.9 nM; IC50 (ROS1): 5.87 nM; IC50 (SRC): 32.1 nM; IC50 (FRK (PTK5); read-out: IC50 of compound): 27 nM; inhibition at 1 µM (FRK (PTK5)): 99%; inhibition at 1 µM (RET): 101%
